The target in this assay is NAMPT enzyme (Homo sapiens (Human), UniProt P43490). Description: Enzyme Assay and NMN Detection (NAMPT reaction, fluorescence detection of NMN). The format is biochemical. Particulars: NAMPT activation, NMN formation. In short, it runs like this: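 Reaction in 50 mM HEPES pH 7.5, 5 mM MgCl2, 0.1% Prionex, 0.005% Tween 20, 1 mM TCEP at room temperature, with 16 nM NAMPT, 120 uM ATP, 5 uM nicotinamide, 6.25 uM PRPP, 0.04 U/ml pyrophosphatase for 2 h. Stopped with acetophenone/KOH then formic acid; NMN quantified by fluorescence (ex380/em460) against calibration curve.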

Structures are written as SMILES.

A word on the EC50: it is the concentration needed to bring the measured effect to its halfway point. High values mean a less potent agent, low ones a more potent agent.

NAMPT enzyme, sequence (P43490 whole entry, species assumed): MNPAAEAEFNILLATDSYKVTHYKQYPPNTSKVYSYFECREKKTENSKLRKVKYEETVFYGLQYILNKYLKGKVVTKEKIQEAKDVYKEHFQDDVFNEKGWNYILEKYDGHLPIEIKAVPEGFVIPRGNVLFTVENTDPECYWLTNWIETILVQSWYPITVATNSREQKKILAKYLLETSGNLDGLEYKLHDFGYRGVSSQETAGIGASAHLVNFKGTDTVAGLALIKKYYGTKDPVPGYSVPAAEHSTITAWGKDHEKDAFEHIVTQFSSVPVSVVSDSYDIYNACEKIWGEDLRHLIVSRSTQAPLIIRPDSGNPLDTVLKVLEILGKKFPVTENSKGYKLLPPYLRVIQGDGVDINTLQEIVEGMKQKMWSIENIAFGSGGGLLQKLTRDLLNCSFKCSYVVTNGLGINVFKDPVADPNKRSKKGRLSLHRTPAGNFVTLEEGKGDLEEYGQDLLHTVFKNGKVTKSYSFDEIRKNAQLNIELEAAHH

`Cc1ccc(S(=O)(=O)c2ccc(NC(=O)NCc3cnco3)cc2)cn1` [1-[4-(6-Methyl-pyridine-3-sulfonyl)-phenyl]-3-oxazol-5-ylmethyl-urea]: under “Table B-5”, the concentration giving a half-maximal response (EC50) fell in the range of 100 to 2000 nM.

`Cc1ccc(S(=O)(=O)c2ccc(NC(=O)NCc3ccncc3)cc2)cn1` [1-[4-(6-Methyl-pyridine-3-sulfonyl)-phenyl]-3-pyridin-4-ylmethyl-urea]: where the note is “Table B-6”, the EC50 lay in the range of 100 to 2000 nM.

Under “Table B-2”, `O=C(NCc1ccncc1)Nc1ccc(S(=O)(=O)N2CCc3cccc(Cl)c3C2)cc1` [1-[4-(8-Chloro-3,4-dihydro-1H-isoquinoline-2-sulfonyl)-phenyl]-3-pyridin-4-ylmethyl-urea] gave an EC50 of less than 100 nM.

`O=C(NCc1ccncc1)Nc1ccc(S(=O)(=O)N2CCc3cccc(F)c3C2)cc1` [1-[4-(8-Fluoro-3,4-dihydro-1H-isoquinoline-2-sulfonyl)-phenyl]-3-pyridin-4-ylmethyl-urea] returned an EC50 (Table B-2) of less than 100 nM.

As for `Cc1cccc2c1CN(S(=O)(=O)c1ccc(NC(=O)NCc3ccncc3)cc1)CC2` [1-[4-(8-Methyl-3,4-dihydro-1H-isoquinoline-2-sulfonyl)-phenyl]-3-pyridin-4-ylmethyl-urea], the 50% effective concentration (EC50) (Table B-2) was less than 100 nM.

With `O=C(NCc1cn[nH]c1)Nc1ccc(S(=O)(=O)N2CC3CCC(C2)O3)cc1` [1-[4-(8-Oxa-3-aza-bicyclo[3.2.1]octane-3-sulfonyl)-phenyl]-3-(1H-pyrazol-4-ylmethyl)-urea], the EC50 (Table B-1) is 100 to 2000 nM.

As for `O=C(NCc1ccccn1)Nc1ccc(S(=O)(=O)N2CC3CCC(C2)O3)cc1` [1-[4-(8-Oxa-3-aza-bicyclo[3.2.1]octane-3-sulfonyl)-phenyl]-3-pyridin-2-ylmethyl-urea], the EC50 (Table B-3) is more than 20000 nM.

Take `O=C(NCc1ccncc1)Nc1ccc(S(=O)(=O)N2CC3CCC(C2)O3)cc1` [1-[4-(8-Oxa-3-aza-bicyclo[3.2.1]octane-3-sulfonyl)-phenyl]-3-pyridin-4-ylmethyl-urea]: the EC50 (Table B-2) was in the range of 100 to 2000 nM.

`O=C(NCc1ccncc1)Nc1ccc(Nc2nc3ccccc3s2)cc1` [1-[4-(Benzothiazol-2-ylamino)-phenyl]-3-pyridin-4-ylmethyl-urea]: the EC50 (Table B-6) is 5000 to 20000 nM.

Consider `O=C(NCc1ccncc1)Nc1ccc(S(=O)(=O)N2CCOCC2)cc1` [1-[4-(Morpholine-4-sulfonyl)-phenyl]-3-pyridin-4-ylmethyl-urea], for which the EC50 (Table B-2) was in the range of 100 to 2000 nM.

`O=C(NCc1ccncc1)Nc1ccc(S(=O)(=O)N2CCNCC2)cc1` [1-[4-(Piperazine-1-sulfonyl)-phenyl}-3-pyridin-4-ylmethyl-urea]: the half-maximal effective concentration (EC50) (Table B-2) was 5000 to 20000 nM.

Take `O=C(NCc1ccncc1)Nc1ccc(S(=O)(=O)N2CCCCC2)cc1` [1-[4-(Piperidine-1-sulfonyl)-phenyl]-3-pyridin-4-ylmethyl-urea]: the EC50 (Table B-2) lay in the range of 100 to 2000 nM.

In the case of `O=C(NCc1cn[nH]c1)Nc1ccc(S(=O)(=O)c2cnccn2)cc1` [1-[4-(Pyrazine-2-sulfonyl)-phenyl]-3-(1H-pyrazol-4-ylmethyl)-urea], the concentration giving a half-maximal response (EC50) (Table B-4) lay within 100 to 2000 nM.

In turn, `O=C(NCc1ccncc1)Nc1ccc(S(=O)(=O)c2cnccn2)cc1` [1-[4-(Pyrazine-2-sulfonyl)-phenyl]-3-pyridin-4-ylmethyl-urea] had an EC50 (Table B-6) of 100 to 2000 nM.

In the case of `O=C(NCc1ccncc1)Nc1ccc(S(=O)(=O)c2cccnc2)cc1` [1-[4-(Pyridine-3-sulfonyl)-phenyl]-3-pyridin-4-ylmethyl-urea], where the note is “Table B-6”, the concentration giving a half-maximal response (EC50) lay within 100 to 2000 nM.

The compound `CCOC(=O)c1ccc2c(cnn2C(=O)NCc2ccncc2)c1` [1-[(Pyridin-4-ylmethyl)-carbamoyl]-1H-indazole-5-carboxylic acid ethyl ester] yielded a half-maximal effective concentration (EC50) (Table B-3) of more than 20000 nM.

In turn, `O=C(NCc1cn[nH]c1)Nc1ccc(Nc2nc(-c3ccccc3Cl)cs2)cc1` [1-{4-[4-(2-Chloro-phenyl)-thiazol-2-ylamino]-phenyl}-3-(1H-pyrazol-4-ylmethyl)-urea] returned an EC50 (Table B-4) of 5000 to 20000 nM.

As to `O=C(NCc1cn[nH]c1)Nc1ccc(Nc2nc(-c3ccccc3F)cs2)cc1` [1-{4-[4-(2-Fluoro-phenyl)-thiazol-2-ylamino]-phenyl}-3-(1H-pyrazol-4-ylmethyl)-urea], under “Table B-4”, the EC50 lay within 100 to 2000 nM.

Compound `O=C(NCc1cn[nH]c1)Nc1ccc(Nc2nc(-c3cccc(Cl)c3)cs2)cc1` [1-{4-[4-(3-Chloro-phenyl)-thiazol-2-ylamino]-phenyl}-3-(1H-pyrazol-4-ylmethyl)-urea] came in with a 50% effective concentration (EC50) (Table B-4) of 2000 to 5000 nM.

`O=C(NCc1cn[nH]c1)Nc1ccc(Nc2nc(-c3cccc(F)c3)cs2)cc1` [1-{4-[4-(3-Fluoro-phenyl)-thiazol-2-ylamino]-phenyl}-3-(1H-pyrazol-4-ylmethyl)-urea] had an EC50 (Table B-4) of 100 to 2000 nM.

In turn, `O=C(NCc1cn[nH]c1)Nc1ccc(Nc2nc(-c3ccc(Cl)cc3)cs2)cc1` [1-{4-[4-(4-Chloro-phenyl)-thiazol-2-ylamino]-phenyl}-3-(1H-pyrazol-4-ylmethyl)-urea] came in with an EC50 (Table B-4) of 100 to 2000 nM.

On to `O=C(NCc1cn[nH]c1)Nc1ccc(Nc2nc(-c3ccc(F)cc3)cs2)cc1` [1-{4-[4-(4-Fluoro-phenyl)-thiazol-2-ylamino]-phenyl}-3-(1H-pyrazol-4-ylmethyl)-urea], for which, where the note is “Table B-4”, the 50% effective concentration (EC50) lay within 100 to 2000 nM.

Consider `O=C(NCc1ccncc1)Nc1ccc(NS(=O)(=O)c2ccccc2Cl)cc1` [2-Chloro-N-[4-(3-pyridin-4-ylmethyl-ureido)-phenyl]-benzenesulfonamide], for which the EC50 (Table B-2) was less than 100 nM.

Where the note is “Table B-2”, `COc1ccccc1S(=O)(=O)Nc1ccc(NC(=O)NCc2ccncc2)cc1` [2-Methoxy-N-[4-(3-pyridin-4-ylmethyl-ureido)-phenyl]-benzenesulfonamide] gave an EC50 of 100 to 2000 nM.

For the setting “Table B-2”, `COC(=O)c1ccccc1CNS(=O)(=O)c1ccc(NC(=O)NCc2ccncc2)cc1` [2-{[4-(3-Pyridin-4-ylmethyl-ureido)-benzenesulfonylamino]-methyl}-benzoic acid methyl ester] registered an EC50 of less than 100 nM.

With `O=C(NCc1ccncc1)Nc1cccc(C(=O)O)c1` [3-(3-(Pyridin-4-ylmethyl)ureido)benzoic acid], the EC50 (Table B-2) is more than 20000 nM.

In the case of `O=C(NCc1ccncc1)Nc1ccc(NS(=O)(=O)c2cccc(Cl)c2)cc1` [3-Chloro-N-[4-(3-pyridin-4-ylmethyl-ureido)-phenyl]-benzenesulfonamide], where the note is “Table B-2”, the EC50 is less than 100 nM.

Where the note is “Table B-2”, `COc1cccc(S(=O)(=O)Nc2ccc(NC(=O)NCc3ccncc3)cc2)c1` [3-Methoxy-N-[4-(3-pyridin-4-ylmethyl-ureido)-phenyl]-benzenesulfonamide] returned an EC50 of less than 100 nM.

With `COC(=O)c1cccc(CNS(=O)(=O)c2ccc(NC(=O)NCc3ccncc3)cc2)c1` [3-{[4-(3-Pyridin-4-ylmethyl-ureido)-benzenesulfonylamino]-methyl}-benzoic acid methyl ester], the concentration for a half-maximal effect (EC50) (Table B-2) was 100 to 2000 nM.

Compound `CCOC(=O)c1ccc(N2CCN(Cc3ccncc3)C2=O)cc1` [4-(2-Oxo-3-pyridin-4-ylmethyl-imidazolidin-1-yl)-benzoic acid ethyl ester] returned an EC50 (Table B-3) of more than 20000 nM.

Consider `O=C(O)c1ccc(N2CCN(Cc3ccncc3)C2=O)cc1` [4-(2-oxo-3-pyridin-4-ylmethyl-imidazolidin-1-yl)-benzoic acid], for which, for the setting “Table B-3”, the EC50 is more than 20000 nM.

Consider `O=C(NCc1cn[nH]c1)Nc1ccc(C(=O)Nc2ccccc2Cl)cc1` [4-(3-((1H-pyrazol-4-yl)methyl)ureido)-N-(2-chlorophenyl)benzamide], for which, where the note is “Table B-1”, the 50% effective concentration (EC50) was 100 to 2000 nM.

`COc1ccccc1NC(=O)c1ccc(NC(=O)NCc2cn[nH]c2)cc1` [4-(3-((1H-pyrazol-4-yl)methyl)ureido)-N-(2-methoxyphenyl)benzamide] came in with an EC50 (Table B-1) of 100 to 2000 nM.

As to `COc1cccc(NC(=O)c2ccc(NC(=O)NCc3cn[nH]c3)cc2)c1` [4-(3-((1H-pyrazol-4-yl)methyl)ureido)-N-(3-methoxyphenyl)benzamide], the EC50 (Table B-1) lay within 100 to 2000 nM.

Compound `O=C(NCc1cn[nH]c1)Nc1ccc(C(=O)Nc2ccc(Cl)cc2)cc1` [4-(3-((1H-pyrazol-4-yl)methyl)ureido)-N-(4-chlorophenyl)benzamide] gave an EC50 (Table B-1) of 100 to 2000 nM.

`COc1ccc(NC(=O)c2ccc(NC(=O)NCc3cn[nH]c3)cc2)cc1` [4-(3-((1H-pyrazol-4-yl)methyl)ureido)-N-(4-methoxyphenyl)benzamide] returned an EC50 (Table B-1) of 100 to 2000 nM.

For the setting “Table B-2”, `O=C(NCc1ccncc1)Nc1ccc(C(=O)NCCN2CCCC2)cc1` [4-(3-(Pyridin-4-ylmethyl)ureido)-N-(2-(pyrrolidin-1-yl)ethyl)benzamide] displayed a 50% effective concentration (EC50) of 2000 to 5000 nM.

Consider `O=C(NCc1ccncc1)Nc1ccc(C(=O)Nc2ccccc2OC(F)(F)F)cc1` [4-(3-(Pyridin-4-ylmethyl)ureido)-N-(2-(trifluoromethoxy)phenyl)benzamide], for which, where the note is “Table B-2”, the 50% effective concentration (EC50) fell in the range of 100 to 2000 nM.

Consider `Cc1cccc(NC(=O)c2ccc(NC(=O)NCc3ccncc3)cc2)c1` [4-(3-(Pyridin-4-ylmethyl)ureido)-N-(m-tolyl)benzamide], for which the half-maximal effective concentration (EC50) (Table B-2) was in the range of 100 to 2000 nM.

Turning to `Cc1ccccc1NC(=O)c1ccc(NC(=O)NCc2ccncc2)cc1` [4-(3-(Pyridin-4-ylmethyl)ureido)-N-(o-tolyl)benzamide], the EC50 (Table B-2) lay in the range of 100 to 2000 nM.

Regarding `Cc1ccc(NC(=O)c2ccc(NC(=O)NCc3ccncc3)cc2)cc1` [4-(3-(Pyridin-4-ylmethyl)ureido)-N-(p-tolyl)benzamide], the half-maximal effective concentration (EC50) (Table B-2) is 2000 to 5000 nM.

Take `O=C(NCc1ccncc1)Nc1ccc(C(=O)Nc2cccs2)cc1` [4-(3-(Pyridin-4-ylmethyl)ureido)-N-(thiophen-2-yl)benzamide]: the EC50 (Table B-2) fell in the range of 2000 to 5000 nM.

`NC(=O)c1ccc(NC(=O)NCc2ccncc2)cc1` [4-(3-(Pyridin-4-ylmethyl)ureido)benzamide] registered an EC50 (Table B-2) of 5000 to 20000 nM.

For the compound `O=C(NCc1ccncc1)Nc1ccc(C(=O)O)cc1` [4-(3-(Pyridin-4-ylmethyl)ureido)benzoic acid], the EC50 (Table B-2) is more than 20000 nM.

On to `O=C(NCc1ccncc1)Nc1ccc(C(=O)Nc2cccc(OC(F)(F)F)c2)cc1` [4-(3-(pyridin-4-ylmethyl)ureido)-N-(3-(trifluoromethoxy)phenyl)benzamide], for which, where the note is “Table B-2”, the EC50 lay within 2000 to 5000 nM.

The record behind these values is US11452717B2, “Small molecule activators of nicotinamide phosphoribosyltransferase (NAMPT) and uses thereof” (Sanford Burnham Prebys Medical Discovery Institute, priority 2017, dated 2022).
